Measured values from patent US10239873B2, “7-azaindole or 4,7-diazaindole derivatives as IKKϵ epsilon and TBK1 inhibitor and pharmaceutical composition comprising same” (GREEN CROSS CORPORATION, priority 2015, dated 2019).

Legend:
TBK1 = biological target: T1, TBK1 (Homo sapiens, UniProt Q9UHD2); assay: ADP-Glo Kinase Assay, inhibition activity on TBK1; assay type: biochemical
T1 construct: purchased Promega (Invitrogen is also named in the same bracket) V4158; PR8031B; V3991 (not assigned to the two kinases)
T1 sequence (Q9UHD2 1-729): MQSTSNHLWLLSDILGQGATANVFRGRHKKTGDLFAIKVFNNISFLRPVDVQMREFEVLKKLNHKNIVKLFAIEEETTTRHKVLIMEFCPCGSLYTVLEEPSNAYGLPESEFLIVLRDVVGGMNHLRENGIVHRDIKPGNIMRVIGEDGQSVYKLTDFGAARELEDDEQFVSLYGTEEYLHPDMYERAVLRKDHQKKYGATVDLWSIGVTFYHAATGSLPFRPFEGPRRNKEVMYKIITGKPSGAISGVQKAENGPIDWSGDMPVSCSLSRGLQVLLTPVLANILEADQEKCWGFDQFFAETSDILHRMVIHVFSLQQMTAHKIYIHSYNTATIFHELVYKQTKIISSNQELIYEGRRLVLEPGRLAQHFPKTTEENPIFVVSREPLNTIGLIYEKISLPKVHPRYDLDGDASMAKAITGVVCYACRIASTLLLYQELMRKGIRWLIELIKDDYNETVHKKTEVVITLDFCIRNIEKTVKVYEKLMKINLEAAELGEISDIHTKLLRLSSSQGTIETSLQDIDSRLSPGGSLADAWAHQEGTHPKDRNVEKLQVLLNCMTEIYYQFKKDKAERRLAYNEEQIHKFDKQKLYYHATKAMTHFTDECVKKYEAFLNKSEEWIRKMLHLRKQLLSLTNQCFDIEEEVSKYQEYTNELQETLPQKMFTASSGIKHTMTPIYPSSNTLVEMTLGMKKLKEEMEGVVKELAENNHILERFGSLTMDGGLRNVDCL
In short: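 Kinase activity measured with the ADP-Glo luminescent ADP-detection kit per manufacturer's protocol, using IKKε or TBK1 kinase enzyme systems. Reaction buffer: 40 mM Tris (pH 7.5), 20 mM MgCl2, 0.1 mg/mL BSA; luminescence read on a luminometer.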

IKKε = biological target: T2, IKKε (Homo sapiens, UniProt Q14164); assay: ADP-Glo Kinase Assay, inhibition activity on IKKε; assay type: biochemical
T2 construct: purchased Promega and/or Invitrogen V4158; PR8031B; V3991 (not assigned to the two kinases)
T2 sequence (Q14164 1-716): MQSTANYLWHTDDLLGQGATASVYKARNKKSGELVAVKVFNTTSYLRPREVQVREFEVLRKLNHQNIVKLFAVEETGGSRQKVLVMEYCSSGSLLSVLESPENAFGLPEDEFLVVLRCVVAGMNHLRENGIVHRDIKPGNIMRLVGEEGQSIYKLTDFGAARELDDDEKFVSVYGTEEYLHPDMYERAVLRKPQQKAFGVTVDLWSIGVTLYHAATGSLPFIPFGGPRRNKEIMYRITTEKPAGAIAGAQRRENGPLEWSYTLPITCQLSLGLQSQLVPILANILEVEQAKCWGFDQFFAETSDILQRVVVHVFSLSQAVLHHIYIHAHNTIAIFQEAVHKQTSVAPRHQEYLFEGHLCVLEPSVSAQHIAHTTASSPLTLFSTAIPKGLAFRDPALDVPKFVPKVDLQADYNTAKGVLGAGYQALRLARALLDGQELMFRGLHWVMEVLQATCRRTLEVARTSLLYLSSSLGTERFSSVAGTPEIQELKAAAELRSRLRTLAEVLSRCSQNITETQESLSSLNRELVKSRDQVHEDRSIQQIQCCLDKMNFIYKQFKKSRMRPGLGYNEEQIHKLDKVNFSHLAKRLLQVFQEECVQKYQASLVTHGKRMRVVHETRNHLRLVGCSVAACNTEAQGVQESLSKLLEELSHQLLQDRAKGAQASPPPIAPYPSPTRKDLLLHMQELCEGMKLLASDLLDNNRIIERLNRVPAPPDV
Method: Inhibition activities on IKKϵ and TBK1 were evaluated using the compounds of Examples 1 to 250.
The inhibition activities on IKKϵ and TBK1 were measured by a luminometer, IKKϵ/TBK1 Kinase Enzyme System (Promega, Ca# V4158; Invitrogen, PR8031B, Promega, Ca# V3991) and ADP-Glo Kinase Assay using ADP-Glo™ Kinase Analysis Kit (Promega, Ca# V9101) and a kinase reaction buffer [40 mM Tris(pH 7.5), 20 mM MgCl2, 0.1 mg/mL BSA] in accordance with the manufacturer's protocol.

IC50 (TBK1)	IC50 (IKKε)	SMILES
74 nM	170 nM	CCC(CC)NC(=O)N1CC=C(c2c[nH]c3ncc(-c4ccc(CN5CCOCC5)s4)cc23)CC1 [Example 40, 4-(5-(5-(Morpholinomethyl)thiophen-2-yl)-1H-pyrrolo[2,3-b]pyridin-3-yl)-N-(pentan-3-yl)-3,6-dihydropyridine-1(2H)-carboxamide]
15 nM	55 nM	CN1CCN(Cc2ccc(-c3cnc4[nH]cc(C5=CCN(C(=O)NC6COC6)CC5)c4c3)cc2)CC1 [Example 78, 4-(5-(4-((4-Methylpiperazin-1-yl)methyl)phenyl)-1H-pyrrolo[2,3-b]pyridin-3-yl)-N-(oxetan-3-yl)-5,6-dihydropyridine-1(2H)-carboxamide]
140 nM	660 nM	CC(=O)N1CC=C(c2c[nH]c3ncc(-c4ccc(CN5CCOCC5)s4)cc23)CC1 [Example 8, 1-(4-(5-(5-(Morpholinomethyl)thiophen-2-yl)-1H-pyrrolo[2,3-b]pyridin-3-yl)-3,6-dihydropyridin-1(2H)-yl)ethan-1-one]
46 nM	180 nM	CCC(CC)NC(=O)N1CCC(c2c[nH]c3ncc(-c4ccc(CN5CCN(C)CC5)s4)cc23)=CC1C (stereo not shown) [Example 91, 6-Methyl-4-(5-(5-((4-methylpiperazin-1-yl)methyl)thiophen-2-yl)-1H-pyrrolo[2,3-b]pyridin-3-yl)-N-(pentan-3-yl)-3,6-dihydropyridine-1(2H)-carboxamide]
58 nM	190 nM	O=C(NC1CCCC1)N1CC=C(c2c[nH]c3ncc(-c4ccc(S(=O)(=O)C5CC5)cc4)cc23)CC1 [Example 56, N-cyclopentyl-4-(5-(4-(cyclopropylsulfonyl)phenyl)-1H-pyrrolo[2,3-b]pyridin-3-yl)-5,6-dihydropyridine-1(2H)-carboxamide]
3.1 nM	4.7 nM	CC1C=C(c2c[nH]c3ncc(-c4ccc(CN5CCOCC5)s4)cc23)CCN1C(=O)NC1CCCC1 (stereo not shown) [Example 106, N-cyclopentyl-2-methyl-4-(5-(5-(morpholinomethyl)thiophen-2-yl)-1H-pyrrolo[2,3-b]pyridin-3-yl)-5,6-dihydropyridine-1(2H)-carboxamide]
7.7 nM	25 nM	CCN1CCN(Cc2ccc(-c3cnc4[nH]cc(C5=CCN(C(=O)NC(C)C)CC5)c4c3)s2)CC1 [Example 26, 4-(5-(5-((4-Ethylpiperazin-1-yl)methyl)thiophen-2-yl)-1H-pyrrolo[2,3-b]pyridin-3-yl)-N-isopropyl-3,6-dihydropyridine-1(2H)-carboxamide]
32 nM	84 nM	CCS(=O)(=O)c1cccc(-c2cnc3[nH]cc(C4=CCN(C(=O)NC5CCCC5)CC4)c3c2)c1 [Example 54, N-cyclopentyl-4-(5-(3-(ethylsulfonyl)phenyl)-1H-pyrrolo[2,3-b]pyridin-3-yl)-3,6-dihydropyridine-1(2H)-carboxamide]
31 nM	6800 nM	CC(C)NC(=O)N1CC=C(c2c[nH]c3ncc(-c4ccc(F)cc4)cc23)CC1 [Example 13, 4-(5-(4-Fluorophenyl)-1H-pyrrolo[2,3-b]pyridin-3-yl)-N-isopropyl-3,6-dihydropyridine-1(2H)-carboxamide]
71 nM	160 nM	CC(C)NC(=O)N1CC=C(c2c[nH]c3ncc(-c4cc(CN5CCOCC5)ccc4F)cc23)CC1 [Example 21, 4-(5-(2-Fluoro-5-(morpholinomethyl)phenyl)-1H-pyrrolo[2,3-b]pyridin-3-yl)-N-isopropyl-3,6-dihydropyridine-1(2H)-carboxamide]
32 nM	46 nM	CC(C)NC(=O)N1CC=C(c2c[nH]c3ncc(-c4ccc(CN5CCOCC5)cc4F)cc23)CC1 [Example 20, 4-(5-(2-Fluoro-4-(morpholinomethyl)phenyl)-1H-pyrrolo[2,3-b]pyridin-3-yl)-N-isopropyl-3,6-dihydropyridine-1(2H)-carboxamide]
23 nM	29 nM	COc1ccc(-c2cnc3[nH]cc(C4=CC(C)N(C(=O)NC5CCCC5)CC4)c3c2)cc1OC (stereo not shown) [Example 108, N-cyclopentyl-4-(5-(3,4-dimethoxyphenyl)-1H-pyrrolo[2,3-b]pyridin-3-yl)-2-methyl-5,6-dihydropyridine-1(2H)-carboxamide]
220 nM	390 nM	CCC1C=C(c2c[nH]c3ncc(-c4ccc(CN5CCOCC5)s4)cc23)CCN1C(=O)NC(C)C (stereo not shown) [Example 109, 2-Ethyl-N-isopropyl-4-(5-(5-(morpholinomethyl)thiophen-2-yl)-1H-pyrrolo[2,3-b]pyridin-3-yl)-5,6-dihydropyridine-1(2H)-carboxamide]
3.1 nM	6.5 nM	CC1C=C(c2c[nH]c3ncc(-c4ccc(CN5CCN(C)CC5)s4)cc23)CCN1C(=O)NC1CC1 (stereo not shown) [Example 96, N-cyclopropyl-2-methyl-4-(5-(5-((4-methylpiperazin-1-yl)methyl)thiophen-2-yl)-1H-pyrrolo[2,3-b]pyridin-3-yl)-5,6-dihydropyridine-1(2H)-carboxamide]
6.4 nM	7 nM	CC(=O)Nc1cccc(-c2cnc3[nH]cc(C4=CCN(C(=O)NC(C)C)CC4)c3c2)c1 [Example 19, 4-(5-(3-Acetamidophenyl)-1H-pyrrolo[2,3-b]pyridin-3-yl)-N-isopropyl-3,6-dihydropyridine-1(2H)-carboxamide]
36 nM	97 nM	CC1CN(C(=O)NC2CCCC2)CC=C1c1c[nH]c2ncc(-c3cccc(S(C)(=O)=O)c3)cc12 (stereo not shown) [Example 122, N-cyclopentyl-5-methyl-4-(5-(3-(methylsulfonyl)phenyl)-1H-pyrrolo[2,3-b]pyridin-3-yl)-5,6-dihydropyridine-1(2H)-carboxamide]
2.7 nM	3.2 nM	CC1C=C(c2c[nH]c3ncc(-c4ccc(CN5CCN(C)CC5)s4)cc23)CCN1C(=O)NC1CCCC1 (racemic) [Example 107, N-cyclopentyl-2-methyl-4-(5-(5-((4-methylpiperazin-1-yl)methyl)thiophen-2-yl)-1H-pyrrolo[2,3-b]pyridin-3-yl)-5,6-dihydropyridine-1(2H)-carboxamide]
1.2 nM	3.4 nM	O=C(NC1COC1)N1CC=C(c2c[nH]c3ncc(-c4ccc(CN5CCOCC5)s4)cc23)CC1 [Example 80, 4-(5-(5-(Morpholinomethyl)thiophen-2-yl)-1H-pyrrolo[2,3-b]pyridin-3-yl)-N-(oxetan-3-yl)-5,6-dihydropyridine-1(2H)-carboxamide]

SMILES	IC50 (TBK1)	IC50 (IKKε)
CC(C)NC(=O)N1C2C=C(c3c[nH]c4ncc(-c5ccc(CN6CCOCC6)s5)cc34)CC1CCC2 (stereo not shown) [Example 118, N-isopropyl-3-(5-(5-(morpholinomethyl)thiophen-2-yl)-1H-pyrrolo[2,3-b]pyridin-3-yl)-9-azabicyclo[3.3.1]non-3-ene-9-carboxamide]	340 nM	610 nM
COc1ccc(-c2cnc3[nH]cc(C4=CCN(C)CC4)c3c2)cc1OC [Example 2, 5-(3,4-Dimethoxyphenyl)-3-(1-methyl-1,2,3,6-tetrahydropyridin-4-yl)-1H-pyrrolo[2,3-b]pyridine]	9040 nM	> 10000 nM
